This passage reports EC50 results from patent publication US10314827B2, “Methods of use of cyclopamine analogs” (Infinity Pharmaceuticals, Inc., priority 2006, dated 2019).

The term EC50 denotes the concentration needed to bring the measured effect to its halfway point.

The first experiment has as its target Hedgehog pathway. The experiment is described as follows: C3H10T1/2 osteoblast differentiation assay (alkaline phosphatase readout). The experiment is classed as cell-based, Mouse. The following applies: C3H10T1/2 cells, sonic Hedgehog 250 ng/ml, AP activity normalized to total protein; read-out: Differentiation Assay EC50 (approximate EC50 for inhibition). An excerpt:
Hedgehog pathway specific cancer cell killing effects may be ascertained using the following assay. C3H10T1/2 cells differentiate into osteoblasts when contacted with the sonic hedgehog peptide (Shh-N). Upon differentiation; these osteoblasts produce high levels of alkaline phosphatase (AP) which can be measured in an enzymatic assay (Nakamura et al., X BBRC (1997) 237:465). Compounds that block the differentiation of C3H10T1/2 into osteoblasts (a Shh dependent event) can therefore be identified by a reduction in AP production (van der Horst et al., Bone (2003) 33:899). The assay details are described below. The results approximate (EC50 for inhibition) of the differentiation assay is shown below in Table 1.
Mouse embryonic mesoderm fibroblasts C3H10T1/2 cells (obtained from ATCC) were cultured in Basal MEM Media (Gibco/Invitrogen) supplemented with 10% heat inactivated FBS (Hyclone), 50 units/ml penicillin and 50 ug/ml streptomycin (Gibco/Invitrogen) at 37° C. With 5% CO2 in air atmosphere.
C3H10T1/2 cells were plated in 96 wells with a density of 8×10^3 cells/well. Cells were grown to confluence (72 hrs). After sonic Hedgehog (250 ng/ml), and/or compound treatment, the cells were lysed in 110 μL of lysis buffer (50 mm Tris ph 7.4, 0.1% tritonx100), plates were sonicated and lysates spun through 0.2 μm PVDF plates (Corning). 40 μL of lysates was assayed for AP activity in alkaline buffer solution (Sigma) containing 1 mg/ml p-Nitrophenyl Phosphate. After incubating for 30 min at 37° C., the plates were read on an Envision plate reader at 405 nm. Total protein was quantified with a BCA protein assay kit from Pierce according to manufacturer's instructions. AP activity was normalized against total protein.
Consider `CC1=C2C[C@H]3[C@@H](CC=C4C[C@@H](OCc5ccccc5)CC[C@@]43C)[C@@H]2CC[C@@]2(C1)O[C@@H]1C[C@H](C)CN(C(=O)OCc3ccccc3)[C@H]1[C@H]2C` [Compound 7], for which the EC50 was over 100 nM.
Take `CC1=C2C[C@H]3[C@@H](CC[C@@H]4CC(=O)CC[C@@]43C)[C@@H]2CC[C@@]2(C1)O[C@@H]1C[C@H](C)CN(CCNCC(=O)c3ccccc3)[C@H]1[C@H]2C` [Compound 13]: the EC50 was under 20 nM.
The same measure, in the same setting: the result for `CC1=C2C[C@H]3[C@@H](CCC4=CC(=O)CC[C@@]43C)[C@@H]2CC[C@@]2(C1)O[C@@H]1C[C@H](C)CN(CCN(C)C)[C@H]1[C@H]2C` [Compound 20] reads under 20 nM.

The experiment is the same for the next values; noted with them: Mus musculus, C3H 10T1/2; C3H10T1/2 cells, sonic Hedgehog 250 ng/ml, AP activity normalized to total protein; read-out: Differentiation Assay EC50 (approximate EC50 for inhibition).
As to `CC1=C2C[C@H]3[C@@H](CC[C@@H]4CC(=O)CC[C@@]43C)[C@@H]2CC[C@@]2(C1)O[C@@H]1C[C@H](C)CN[C@H]1[C@H]2C` [Compound 1], the half-maximal effective concentration (EC50) was under 20 nM.
The same measure, in the same setting: the result for `CC1=C2C[C@H]3[C@@H](CC[C@@H]4CCCC[C@@]43C)[C@@H]2CC[C@@]2(C1)O[C@@H]1C[C@H](C)CN[C@H]1[C@H]2C` [Compound 9] reads over 100 nM.
Consider `CC1=C2C[C@H]3[C@@H](CC[C@@H]4CC(=O)CC[C@@]43C)[C@@H]2CC[C@@]2(C1)O[C@@H]1C[C@H](C)CN(C(C)C)[C@H]1[C@H]2C` [Compound 10], for which the half-maximal effective concentration (EC50) was over 100 nM.
`CC(=O)NCCN1C[C@@H](C)C[C@H]2O[C@]3(CC[C@@H]4C(=C(C)C3)C[C@H]3[C@H]4CC[C@@H]4CC(=O)CC[C@@]43C)[C@H](C)[C@@H]21` [Compound 21]: the EC50 was 20 to 100 nM.
The same measure, in the same setting: for `CC(=O)N(C)CCN1C[C@@H](C)C[C@H]2O[C@]3(CC[C@@H]4C(=C(C)C3)C[C@H]3[C@H]4CC[C@@H]4CC(=O)CC[C@@]43C)[C@H](C)[C@@H]21` [Compound 22] the value was under 20 nM.
For the compound `CC1=C2C[C@H]3[C@@H](CC[C@@H]4CC(=O)CC[C@@]43C)[C@@H]2CC[C@@]2(C1)O[C@@H]1C[C@H](C)CN(CCNC(=O)CCc3ccccc3)[C@H]1[C@H]2C` [Compound 23], the EC50 is under 20 nM.
Turning to `CC1=C2C[C@H]3[C@@H](CC[C@@H]4CC(=O)CC[C@@]43C)[C@@H]2CC[C@@]2(C1)O[C@@H]1C[C@H](C)CN(CCN(C)C(=O)CCc3ccccc3)[C@H]1[C@H]2C` [Compound 24], the concentration for a half-maximal effect (EC50) is under 20 nM.
In the case of `CC(=O)O[C@H]1CC[C@@]2(C)[C@H](CC[C@H]3[C@@H]4CC[C@@]5(CC(C)=C4C[C@@H]32)O[C@@H]2C[C@H](C)CN[C@H]2[C@H]5C)C1` [Compound 35], the concentration for a half-maximal effect (EC50) is under 20 nM.
The same measure, in the same setting: for `CC1=C2C[C@H]3[C@@H](CC[C@@H]4C[C@H](NS(C)(=O)=O)CC[C@@]43C)[C@@H]2CC[C@]12O[C@@H]1C[C@H](C)CN[C@H]1[C@H]2C` [Compound 55] the value was under 20 nM.
